Data reported in PubChem BioAssay AID328 (DTP/NCI, 2004).
Inconclusive results and toxic doses are left out. The calls were made as follows: active = survival T/C of 150% or more; inactive = T/C below 125% in these data.

System: BDF1 mice, P388 leukemia ip, median survival T/C
Assay: NCI In Vivo Anticancer Drug Screen. Data for tumor model P388 Leukemia (intraperitoneal) in B6D2F1 (BDF1) mice
Conditions: endpoint: median survival time, higher = longer survival
In short: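 Reported as T/C, where T is the survival measurement in dosed animals and C the same measurement in vehicle controls.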

[1] = dose: 100.0 mg/kg/injection, schedule: Q04DX003 (ip), vehicle: saline with Tween-80
[2] = dose: 200.0 mg/kg/injection, schedule: Q04DX003 (ip), vehicle: saline with Tween-80
[3] = dose: 400.0 mg/kg/injection, schedule: Q04DX003 (ip), vehicle: saline with Tween-80
[4] = dose: 50.0 mg/kg/injection, schedule: Q01DX009 (ip), vehicle: saline
[5] = dose: 50.0 mg/kg/injection, schedule: Q04DX003 (ip), vehicle: saline
[6] = dose: 50.0 mg/kg/injection, schedule: Q01DX009 (ip), vehicle: saline with Tween-80
[7] = dose: 100.0 mg/kg/injection, schedule: Q01DX009 (ip), vehicle: saline with Tween-80
[8] = dose: 200.0 mg/kg/injection, schedule: Q01DX009 (ip), vehicle: saline with Tween-80

Measured: T/C

O=C(CN1CCOCC1)Nc1cccc(C(F)(F)F)c1
inactive: [1] 86 % of control | [2] 86 % of control | [3] 109 % of control

C#CCN(C)Cc1ccccc1
inactive: dose: 50.0 mg/kg/injection, schedule: Q01DX010 (ip), vehicle: saline 95 % of control | dose: 100.0 mg/kg/injection, schedule: Q01DX010 (ip), vehicle: saline 100 % of control | dose: 200.0 mg/kg/injection, schedule: Q01DX010 (ip), vehicle: saline 109 % of control

O=[N+]([O-])CC(OCCO)C(Cl)(Cl)Cl (stereo unspecified)
inactive: dose: 3.12 mg/kg/injection, schedule: Q04DX003 (ip), vehicle: saline 95 % of control | dose: 6.25 mg/kg/injection, schedule: Q01DX009 (ip), vehicle: acetone 110 % of control | dose: 6.25 mg/kg/injection, schedule: Q04DX003 (ip), vehicle: saline 100 % of control | dose: 12.5 mg/kg/injection, schedule: Q01DX009 (ip), vehicle: acetone 89 % of control | dose: 12.5 mg/kg/injection, schedule: Q04DX003 (ip), vehicle: saline 95 % of control | dose: 18.0 mg/kg/injection, schedule: Q04DX003 (ip), vehicle: saline with Tween-80 118 % of control | dose: 28.0 mg/kg/injection, schedule: Q04DX003 (ip), vehicle: saline with Tween-80 90 % of control | dose: 40.0 mg/kg/injection, schedule: Q04DX003 (ip), vehicle: saline with Tween-80 86 % of control

CCCCN(CCCC)CCCC#N
inactive: dose: 25.0 mg/kg/injection, schedule: Q01DX009 (ip), vehicle: saline 116 % of control | dose: 25.0 mg/kg/injection, schedule: Q04DX003 (ip), vehicle: saline 100 % of control | [4] 116 % of control | [5] 96 % of control | dose: 66.0 mg/kg/injection, schedule: Q01DX009 (ip), vehicle: saline with Tween-80 120 % of control | dose: 100.0 mg/kg/injection, schedule: Q04DX003 (ip), vehicle: saline 103 % of control

CCCCOC(=O)c1ccc(OP(=O)(N(C)C)N(C)C)cc1
inactive: [6] 100 % of control | [7] 94 % of control | [8] 87 % of control

c1ccc(N2CCCCCN2c2ccccc2)cc1
inactive: dose: 50.0 mg/kg/injection, schedule: Q01DX001 (ip), vehicle: saline with Tween-80 92 % of control | dose: 100.0 mg/kg/injection, schedule: Q01DX001 (ip), vehicle: saline with Tween-80 90 % of control | dose: 200.0 mg/kg/injection, schedule: Q01DX001 (ip), vehicle: saline with Tween-80 90 % of control

NC(=O)OCCCCCl
inactive: [4] 110 % of control | dose: 100.0 mg/kg/injection, schedule: Q01DX009 (ip), vehicle: saline 107 % of control | dose: 200.0 mg/kg/injection, schedule: Q01DX009 (ip), vehicle: saline 100 % of control

COc1ccc(C2C(C#N)=C(N)NC(=O)C2C(N)=O)cc1 (stereo unspecified)
inactive: dose: 50.0 mg/kg/injection, schedule: Q01DX005 (ip), vehicle: saline with Tween-80 92 % of control | dose: 100.0 mg/kg/injection, schedule: Q01DX005 (ip), vehicle: saline with Tween-80 89 % of control | dose: 200.0 mg/kg/injection, schedule: Q01DX005 (ip), vehicle: saline with Tween-80 92 % of control

COc1ccc(NC2=CC(C)(C(=O)O)OC2=O)cc1 (stereo unspecified)
inactive: [7] 100 % of control | [1] 100 % of control | [8] 91 % of control | [2] 110 % of control | dose: 400.0 mg/kg/injection, schedule: Q01DX009 (ip), vehicle: saline with Tween-80 108 % of control | [3] 115 % of control

CC1(C)N=C(N)N=C(N)N1c1ccc2ccccc2c1
inactive: dose: 12.5 mg/kg/injection, schedule: Q01DX009 (ip), vehicle: saline 120 % of control | [5] 100 % of control
active: [4] 160 % of control

O=C(NCc1ccco1)C(=O)NCc1ccco1
inactive: [6] 87 % of control | [7] 90 % of control | [8] 98 % of control

CCC1(Br)OC1=O (stereo unspecified)
inactive: dose: 150.0 mg/kg/injection, schedule: Q01DX009 (ip), vehicle: saline 115 % of control | dose: 335.0 mg/kg/injection, schedule: Q01DX009 (ip), vehicle: saline 115 % of control
